Experimental data taken from ChEMBL document CHEMBL3390839, “Triazolopyrimidinones as -secretase modulators: structureactivity relationship, modulator profile, and in vivo profiling” (Medchemcomm, 2013).
Converted amounts (≈) assume the structure as drawn.

Key:
Gamma-secretase = assay: Inhibition of human gamma-secretase in HEK-APPswe cells assessed as amyloid beta42 production by electrochemiluminescence assay; type: cell-based
[1] = Inhibition of gamma-secretase in mouse primary cortical neurons cells assessed as amyloid beta42 production after 5 days by ELISA; type: cell-based, Cerebral cortex neuron; details: for IC50: Mus musculus, Cerebral cortex neuron, 120 h; for pIC50: cerebral cortex neuron
[2] = biological target: Voltage-gated inwardly rectifying potassium channel KCNH2 (Homo sapiens, UniProt Q12809); assay: Inhibition of human ERG
[3] = Solubility of the compound; type: physicochemical
Liver microsome = assay: Intrinsic clearance in human liver microsomes measured pre ug of protein; type: ADME
[4] = Permeability across apical to basolateral side in human Caco2 cells; type: ADME, cell-based; details: for Papp A→B: Caco-2, read-out: permeability; for permeability: Caco-2
[5] = Permeability across basolateral to apical side in human Caco2 cells; type: ADME, cell-based; details: for Papp B→A: Caco-2, read-out: permeability; for permeability: Caco-2
[6] = Ratio of drug level in brain to plasma in C57BL/6 mouse; type: ADME, organism-based; details: brain and plasma, read-out: BPR

Chain of Voltage-gated inwardly rectifying potassium channel KCNH2 (Q12809 whole entry): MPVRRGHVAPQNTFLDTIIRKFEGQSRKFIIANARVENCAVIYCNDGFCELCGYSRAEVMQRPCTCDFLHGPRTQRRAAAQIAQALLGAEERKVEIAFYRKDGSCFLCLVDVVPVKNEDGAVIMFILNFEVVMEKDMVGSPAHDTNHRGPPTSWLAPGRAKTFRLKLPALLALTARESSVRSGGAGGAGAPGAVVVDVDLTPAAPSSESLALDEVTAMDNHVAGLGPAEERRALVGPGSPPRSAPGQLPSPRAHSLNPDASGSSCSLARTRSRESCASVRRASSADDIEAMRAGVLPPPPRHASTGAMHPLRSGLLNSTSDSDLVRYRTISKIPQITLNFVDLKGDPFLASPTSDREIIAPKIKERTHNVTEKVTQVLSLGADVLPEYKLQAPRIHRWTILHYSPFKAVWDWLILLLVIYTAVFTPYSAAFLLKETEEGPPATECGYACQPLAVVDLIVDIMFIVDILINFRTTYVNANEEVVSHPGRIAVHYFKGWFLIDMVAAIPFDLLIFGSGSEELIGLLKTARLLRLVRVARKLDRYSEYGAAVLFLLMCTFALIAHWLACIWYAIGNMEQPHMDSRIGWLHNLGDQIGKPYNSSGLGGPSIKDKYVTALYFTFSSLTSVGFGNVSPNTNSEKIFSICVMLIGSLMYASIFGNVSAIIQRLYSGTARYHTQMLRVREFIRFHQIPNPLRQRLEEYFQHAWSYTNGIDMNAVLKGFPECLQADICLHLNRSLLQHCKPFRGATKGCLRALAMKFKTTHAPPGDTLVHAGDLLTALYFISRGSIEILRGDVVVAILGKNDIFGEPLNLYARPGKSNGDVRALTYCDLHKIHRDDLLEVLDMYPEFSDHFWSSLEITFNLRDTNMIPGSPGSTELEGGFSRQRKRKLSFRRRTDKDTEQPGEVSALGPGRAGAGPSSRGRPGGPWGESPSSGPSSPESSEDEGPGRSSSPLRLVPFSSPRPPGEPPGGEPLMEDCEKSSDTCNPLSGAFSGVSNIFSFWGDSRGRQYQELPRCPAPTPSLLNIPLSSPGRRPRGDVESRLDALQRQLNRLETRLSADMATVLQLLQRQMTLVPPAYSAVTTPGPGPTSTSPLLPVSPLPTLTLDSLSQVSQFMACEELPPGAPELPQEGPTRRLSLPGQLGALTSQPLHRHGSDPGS

Row | SMILES | pIC50 (Gamma-secretase) | IC50 [1] [nM] | solubility ([3]; read-out: solubility) [µM] | CLH (Liver microsome) [µL/min] | pIC50 [1] | Papp A→B [4] [×10⁻⁶ cm/s] | Papp B→A [5] [×10⁻⁶ cm/s] | Kp [6] | solubility [3] [µM] | permeability [4] [×10⁻⁶ cm/s] | permeability [5] [×10⁻⁶ cm/s] | IC50 [2] [nM]
1 | COc1cc(Nc2nc3n(n2)CCC(=O)N3Cc2ccccc2C)ccc1-c1cc(C)cnn1 | 5 | – | 170 (≈ 77.4 µg/mL) | 27 | – | – | – | – | – | – | – | 33000
2 | COc1cc(Nc2nc3n(n2)C(C2CC2)CCN3CC(C)(C)O)ccc1-n1cnc(C)c1 (stereo in doubt; 42B) | – | – | 42 (≈ 18.4 µg/mL) | 21 | 6.9 | – | – | – | – | – | – | 33000
3 | COc1cc(Nc2nc3n(n2)CC(C)(O)CN3Cc2ccccc2)ccc1-n1cnc(C)c1 (configuration not stated) | – | 126 | 160 (≈ 71.3 µg/mL) | 17 | – | – | – | – | – | – | – | 23000
4 | COc1cc(Nc2nc3n(n2)CC(C)C(=O)N3Cc2ccccc2)ccc1-n1cnc(C)c1 (configuration not stated) | – | 50.1 | 2 (≈ 0.887 µg/mL) | 84 | – | – | – | – | – | – | – | 5600
5 | COc1cc(Nc2nc3n(n2)C(C)CC(=O)N3Cc2ccccc2)ccc1-n1cnc(C)c1 (stereo in doubt; 19A) | 7.7 | – | – | 73 | 6.8 | – | – | – | 1 (≈ 0.444 µg/mL) | – | – | –
6 | COc1cc(Nc2nc3n(n2)C(c2ccccc2)CCN3CC(C)(C)O)ccc1-n1cnc(C)c1 (configuration not stated) | – | 25.1 | 230 (≈ 109 µg/mL) | 39 | – | 35 | 19 | 0.01 | – | – | – | 26000
7 | COc1cc(Nc2nc3n(n2)C(C2CC2)CCN3CCC(C)(C)O)ccc1-n1cnc(C)c1 (configuration not stated) | – | 100 | 69 (≈ 31.2 µg/mL) | 26 | – | – | – | – | – | – | – | 16000
8 | COc1cc(Nc2nc3n(n2)CCC(=O)N3Cc2ccccc2C)ccc1-c1noc(C)n1 | 4.8 | – | 50 (≈ 22.3 µg/mL) | 39 | – | 38 | 12 | 0.81 | – | – | – | 33000
9 | COc1cc(Nc2nc3n(n2)CCC(=O)N3Cc2ccccc2C)ccc1-c1ccc(C)nn1 | – | – | < 1 | 66 | – | – | – | – | – | – | – | 33000
10 | COc1cc(Nc2nc3n(n2)C(C)CCN3CC(C)(C)O)ccc1-n1cnc(C)c1 (configuration not stated) | 6.5 | 316 | 330 (≈ 136 µg/mL) | 33 | – | – | – | – | – | – | – | 33000
11 | COc1cc(Nc2nc3n(n2)C(C)CCN3CCC(C)(C)O)ccc1-n1cnc(C)c1 (configuration not stated) | – | 158 | 380 (≈ 162 µg/mL) | 47 | – | – | – | – | – | – | – | 32000
12 | COc1cc(Nc2nc3n(n2)CCC(=O)N3Cc2ccccc2C)ccc1-c1ccnnc1 | 7.5 | 79.4 | < 1 | 56 | – | 18 | 22 | 0.11 | – | – | – | 33000
13 | COc1cc(Nc2nc3n(n2)CCC(=O)N3Cc2ccccc2C)ccc1-c1cnc(C)nc1 | 7.2 | – | < 1 | 94 | – | – | – | – | – | – | – | 11000
14 | COc1cc(Nc2nc3n(n2)C(C)CC(=O)N3CC2CC(F)(F)C2)ccc1-n1cnc(C)c1 (configuration not stated) | – | 50.1 | 4 (≈ 1.83 µg/mL) | 101 | – | 50 | 19 | 0.08 | – | – | – | 4400
15 | COc1cc(Nc2nc3n(n2)C(C)CC(=O)N3Cc2cc(F)ccc2F)ccc1-n1cnc(C)c1 (configuration not stated) | 7.7 | 20 | < 1 | 70 | – | – | – | – | – | – | – | –

Further lines, with some results ahead:

Row | pIC50 (Gamma-secretase) | IC50 [1] [nM] | solubility ([3]; read-out: solubility) [µM] | CLH (Liver microsome) [µL/min] | pIC50 [1] | Papp A→B [4] [×10⁻⁶ cm/s] | Papp B→A [5] [×10⁻⁶ cm/s] | Kp [6] | solubility [3] [µM] | permeability [4] [×10⁻⁶ cm/s] | permeability [5] [×10⁻⁶ cm/s] | SMILES | IC50 [2] [nM]
16 | 5.9 | – | – | – | – | – | – | – | – | – | – | Cc1nnc(-c2ccc(Nc3nc4n(n3)CCCC4c3ccc(F)cc3)cc2)o1 (configuration not stated) | –
17 | 5.8 | – | – | – | – | – | – | – | – | – | – | N#CCc1ccc(Nc2nc3n(n2)CCCC3c2ccc(F)cc2)cc1 (configuration not stated) | –
18 | 7.2 | – | – | – | – | – | – | – | – | – | – | COc1nc(Nc2nc3n(n2)CCCC3c2ccc(F)cc2)ccc1-n1cnc(C)c1 (configuration not stated) | –
19 | – | 100 | 290 (≈ 125 µg/mL) | 19 | – | – | – | – | – | – | – | COc1cc(Nc2nc3n(n2)CC(O)CN3Cc2ccccc2)ccc1-n1cnc(C)c1 (configuration not stated) | 28000
20 | 7.4 | – | < 1 | 22 | – | – | – | – | – | – | – | COc1cc(Nc2nc3n(n2)CCC(=O)N3Cc2ccccc2Cl)ccc1-n1cnc(C)n1 | 33000
21 | 6.8 | – | – | – | – | – | – | – | – | – | – | COc1cc(Nc2nc3n(n2)CCCC3c2ccc(F)cc2)ccc1-c1nc(C)no1 (configuration not stated) | –
22 | 7.4 | 79.4 | 17 (≈ 6.69 µg/mL) | 105 | – | – | – | – | – | – | – | COc1cc(Nc2nc3n(n2)CCCN3CCC2CC2)ccc1-n1cnc(C)c1 | 6200
23 | 7.9 | 79.4 | < 1 | 30 | – | 36 | 12 | 0.24 | – | – | – | COc1cc(Nc2nc3n(n2)CCC(=O)N3Cc2ccccc2)ccc1-n1cnc(C)c1 | 5700
24 | 7.4 | – | – | – | 7 | – | – | – | – | – | – | COc1cc(Nc2nc3n(n2)CCCC3c2ccc(F)cc2)ccc1-n1cnc(C)n1 (stereo in doubt; 14A) | –
25 | 7 | – | – | – | 6.5 | – | – | – | – | – | – | COc1cc(Nc2nc3n(n2)CCCC3c2ccc(F)cc2)ccc1-n1cnc(C)n1 (stereo in doubt; 14B) | –
26 | 7 | 794 | 8 (≈ 3.44 µg/mL) | 16 | – | – | – | – | – | – | – | COc1cc(Nc2nc3n(n2)CCC(=O)N3Cc2ccccc2)ccc1-n1cnc(C)n1 | 17000
27 | 7.7 | 100 | 49 (≈ 20.4 µg/mL) | 82 | – | – | – | – | – | – | – | COc1cc(Nc2nc3n(n2)CCCN3Cc2ccccc2)ccc1-n1cnc(C)c1 | 5000
28 | 7.8 | 79.4 | 110 (≈ 47.5 µg/mL) | 37 | – | – | – | 0.01 | – | 12 | 34 | COc1cc(Nc2nc3n(n2)CCC(O)N3Cc2ccccc2)ccc1-n1cnc(C)c1 (configuration not stated) | –
29 | 7.3 | – | – | 19 | – | – | – | 0.68 | – | 45 | 18 | COc1cc(Nc2nc3n(n2)CCC(=O)N3Cc2ccccc2C(F)(F)F)ccc1-n1cnc(C)n1 | 33000
30 | 7.9 | 31.6 | 2 (≈ 0.951 µg/mL) | 50 | – | – | – | 0.23 | – | – | – | COc1cc(Nc2nc3n(n2)C(C)(C)CC(=O)N3Cc2ccc(F)cc2)ccc1-n1cnc(C)c1 | 5600
31 | 8 | 39.8 | < 1 | 114 | – | – | – | – | – | – | – | COc1cc(Nc2nc3n(n2)CCC(=O)N3Cc2ccccc2C)ccc1-n1cnc(C)c1 | 13000
32 | 7.6 | 50.1 | – | – | – | 36 | 13 | 0.12 | – | – | – | COc1cc(Nc2nc3n(n2)CCCC3c2ccccc2)ccc1-n1cnc(C)c1 (configuration not stated) | –
33 | 7.7 | 100 | – | – | – | – | – | – | – | – | – | COc1cc(Nc2nc3n(n2)CCCC3c2ccc(F)cc2)ccc1-c1cnnc(C)c1 (configuration not stated) | –
34 | – | 15.8 | < 1 | 88 | – | – | – | 0.11 | – | – | – | COc1cc(Nc2nc3n(n2)C(C2CC2)CC(=O)N3Cc2cc(F)ccc2F)ccc1-n1cnc(C)c1 (configuration not stated) | 33000
35 | 7.9 | 25.1 | < 1 | 29 | – | – | – | – | – | – | – | COc1cc(Nc2nc3n(n2)C2(CC2)CC(=O)N3Cc2ccc(F)cc2)ccc1-n1cnc(C)c1 | –
36 | 7.4 | 251 | 2 (≈ 0.831 µg/mL) | 36 | – | – | – | – | – | – | – | COc1cc(Nc2nc3n(n2)CCC(=O)N3c2ccccc2)ccc1-n1cnc(C)c1 | 33000
